Measurements: ChEMBL document CHEMBL1133093, “The PPARs: from orphan receptors to drug discovery” (J Med Chem, 2000)
pEC50: −log10 of the molar value. Values belong to the compound of their own block, whether it stands above or below them.

Experiments:
[1] = target: T1, Peroxisome proliferator-activated receptor gamma (Mus musculus, UniProt P37238)
T1 sequence (P37238 whole entry): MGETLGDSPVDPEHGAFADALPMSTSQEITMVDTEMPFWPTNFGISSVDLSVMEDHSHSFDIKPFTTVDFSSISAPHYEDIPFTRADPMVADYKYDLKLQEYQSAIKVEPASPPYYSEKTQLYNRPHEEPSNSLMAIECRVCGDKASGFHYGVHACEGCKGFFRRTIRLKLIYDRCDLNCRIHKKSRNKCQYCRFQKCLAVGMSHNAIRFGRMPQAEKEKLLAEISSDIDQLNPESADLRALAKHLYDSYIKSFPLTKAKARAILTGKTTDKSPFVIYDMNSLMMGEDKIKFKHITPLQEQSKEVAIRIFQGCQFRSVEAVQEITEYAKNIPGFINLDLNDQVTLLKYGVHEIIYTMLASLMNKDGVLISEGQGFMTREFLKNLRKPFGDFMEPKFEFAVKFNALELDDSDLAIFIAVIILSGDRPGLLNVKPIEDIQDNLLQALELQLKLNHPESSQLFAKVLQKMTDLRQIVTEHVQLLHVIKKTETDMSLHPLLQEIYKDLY
Description: Agonist activity for murine PPAR gamma receptor in transcriptional activation assay

[2] = target: T2, Peroxisome proliferator-activated receptor alpha (Homo sapiens, UniProt Q07869)
T2 sequence (Q07869 whole entry): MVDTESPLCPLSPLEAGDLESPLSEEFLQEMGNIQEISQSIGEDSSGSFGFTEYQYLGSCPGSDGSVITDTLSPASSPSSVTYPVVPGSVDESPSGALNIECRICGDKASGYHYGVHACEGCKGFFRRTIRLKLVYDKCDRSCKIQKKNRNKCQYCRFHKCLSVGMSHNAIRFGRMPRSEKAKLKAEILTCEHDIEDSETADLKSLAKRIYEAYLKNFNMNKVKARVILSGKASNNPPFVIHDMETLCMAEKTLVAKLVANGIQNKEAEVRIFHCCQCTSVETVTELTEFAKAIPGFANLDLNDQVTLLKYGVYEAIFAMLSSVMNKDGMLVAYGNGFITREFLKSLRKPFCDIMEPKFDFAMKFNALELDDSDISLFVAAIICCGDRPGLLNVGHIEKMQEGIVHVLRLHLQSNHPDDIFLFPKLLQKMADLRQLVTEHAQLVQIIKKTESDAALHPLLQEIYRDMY

[3] = target: T3, Peroxisome proliferator-activated receptor alpha (Mus musculus, UniProt P23204); assay: Agonist activity for murine PPAR alpha receptor in transcriptional activation assay;IA means inactive at 10 uM; format: functional
T3 sequence (P23204 whole entry): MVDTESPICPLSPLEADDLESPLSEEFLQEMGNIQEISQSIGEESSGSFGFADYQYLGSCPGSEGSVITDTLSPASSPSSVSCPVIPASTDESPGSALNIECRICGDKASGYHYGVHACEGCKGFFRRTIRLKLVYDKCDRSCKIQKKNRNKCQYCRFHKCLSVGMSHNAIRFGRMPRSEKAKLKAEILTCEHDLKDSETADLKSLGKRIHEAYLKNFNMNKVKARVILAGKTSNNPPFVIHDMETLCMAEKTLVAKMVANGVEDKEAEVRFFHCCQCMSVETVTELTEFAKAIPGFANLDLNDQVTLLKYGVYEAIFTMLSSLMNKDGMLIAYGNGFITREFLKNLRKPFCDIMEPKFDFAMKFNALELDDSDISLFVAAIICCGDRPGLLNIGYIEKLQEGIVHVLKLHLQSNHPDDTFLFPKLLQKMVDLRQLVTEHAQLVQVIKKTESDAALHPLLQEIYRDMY

[4] = target: T4, Peroxisome proliferator-activated receptor gamma (Homo sapiens, UniProt P37231)
T4 sequence (P37231 whole entry): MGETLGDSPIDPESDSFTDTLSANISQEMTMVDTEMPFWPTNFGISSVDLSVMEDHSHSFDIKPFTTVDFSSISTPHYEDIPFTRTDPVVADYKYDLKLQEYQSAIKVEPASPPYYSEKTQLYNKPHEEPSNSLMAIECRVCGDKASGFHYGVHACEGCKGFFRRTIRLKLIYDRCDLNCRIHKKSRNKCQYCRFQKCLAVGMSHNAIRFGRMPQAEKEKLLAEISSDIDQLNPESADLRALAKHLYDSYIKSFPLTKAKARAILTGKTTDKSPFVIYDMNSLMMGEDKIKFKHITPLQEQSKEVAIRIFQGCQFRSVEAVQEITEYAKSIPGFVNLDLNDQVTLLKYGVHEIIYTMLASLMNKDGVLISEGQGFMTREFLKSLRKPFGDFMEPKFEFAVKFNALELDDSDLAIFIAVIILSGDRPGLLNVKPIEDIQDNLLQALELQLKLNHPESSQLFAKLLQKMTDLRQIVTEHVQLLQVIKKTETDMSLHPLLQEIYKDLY

[5] = target: T5, Peroxisome proliferator-activated receptor delta (Homo sapiens, UniProt Q03181)
T5 sequence (Q03181 whole entry): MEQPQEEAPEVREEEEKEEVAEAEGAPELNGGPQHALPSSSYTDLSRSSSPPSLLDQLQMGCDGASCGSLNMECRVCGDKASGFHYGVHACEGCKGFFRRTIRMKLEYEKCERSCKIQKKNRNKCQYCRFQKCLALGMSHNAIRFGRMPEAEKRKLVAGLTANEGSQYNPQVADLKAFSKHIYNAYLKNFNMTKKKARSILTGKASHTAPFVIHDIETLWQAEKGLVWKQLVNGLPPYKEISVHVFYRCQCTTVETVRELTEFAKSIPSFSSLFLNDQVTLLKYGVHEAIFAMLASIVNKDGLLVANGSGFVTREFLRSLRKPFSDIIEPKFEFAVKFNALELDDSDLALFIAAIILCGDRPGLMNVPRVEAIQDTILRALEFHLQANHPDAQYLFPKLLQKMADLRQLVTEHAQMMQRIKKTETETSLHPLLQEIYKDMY

[6] = target: T6, Peroxisome proliferator-activated receptor delta (Mus musculus, UniProt P35396); assay: Agonist activity for murine PPAR delta receptor in transcriptional activation assay; format: functional
T6 sequence (P35396 whole entry): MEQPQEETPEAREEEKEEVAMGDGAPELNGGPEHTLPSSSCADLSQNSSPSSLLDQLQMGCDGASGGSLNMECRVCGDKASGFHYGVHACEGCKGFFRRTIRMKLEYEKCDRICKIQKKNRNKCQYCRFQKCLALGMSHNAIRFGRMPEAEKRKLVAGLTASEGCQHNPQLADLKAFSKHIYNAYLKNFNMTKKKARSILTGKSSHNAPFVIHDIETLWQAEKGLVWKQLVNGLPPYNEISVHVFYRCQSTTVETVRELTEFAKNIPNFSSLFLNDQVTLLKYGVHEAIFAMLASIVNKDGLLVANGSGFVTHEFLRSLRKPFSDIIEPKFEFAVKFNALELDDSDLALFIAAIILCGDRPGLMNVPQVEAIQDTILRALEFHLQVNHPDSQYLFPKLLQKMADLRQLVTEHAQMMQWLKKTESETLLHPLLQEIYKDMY

[7] = target: T3, Peroxisome proliferator-activated receptor alpha; format: functional
[8] = target: T6, Peroxisome proliferator-activated receptor delta; assay: Agonist activity for murine PPAR delta receptor in transcriptional activation assay; IA means inactive at 10 uM; format: functional
[9] = target: T5, Peroxisome proliferator-activated receptor delta; assay: Agonist activity for Human PPAR delta receptor in transcriptional activation assay; IA means inactive at 10 uM; format: functional
[10] = target: T3, Peroxisome proliferator-activated receptor alpha; assay: Agonist activity for murine PPAR alpha receptor in transcriptional activation assay; IA means inactive at 10 uM; format: functional
[11] = target: T2, Peroxisome proliferator-activated receptor alpha; assay: Agonist activity for Human PPAR alpha receptor in transcriptional activation assay; IA means inactive at 10 uM; format: functional
[12] = target: T6, Peroxisome proliferator-activated receptor delta
Description: Agonist activity for murine PPAR delta receptor in transcriptional activation assay;IA means inactive at 10 uM

[13] = target: T5, Peroxisome proliferator-activated receptor delta; remark: listed apart in the source
Description: Agonist activity for Human PPAR delta receptor in transcriptional activation assay;IA means inactive at 10 uM

[14] = target: T2, Peroxisome proliferator-activated receptor alpha; assay: Agonist activity for Human PPAR alpha receptor in transcriptional activation assay;IA means inactive at 10 uM; format: functional
[15] = target: T6, Peroxisome proliferator-activated receptor delta; remark: listed apart in the source
Description: Agonist activity for murine PPAR delta receptor in transcriptional activation assay at 100 uM; IA means inactive

[16] = target: T4, Peroxisome proliferator-activated receptor gamma; assay: Agonist activity for Human PPAR gamma receptor in transcriptional activation assay; format: functional
[17] = target: T5, Peroxisome proliferator-activated receptor delta; assay: Agonist activity for Human PPAR delta receptor in transcriptional activation assay at 100 uM; IA means inactive; format: functional
[18] = target: T6, Peroxisome proliferator-activated receptor delta; remark: listed apart in the source
[19] = target: T2, Peroxisome proliferator-activated receptor alpha; remark: listed apart in the source
[20] = target: T5, Peroxisome proliferator-activated receptor delta; remark: listed apart in the source

SMILES: CCCc1c(OCCCOc2ccc(OCC(=O)O)cc2)ccc(C(C)=O)c1O
pEC50 [1]: 5.00 | pEC50 [2]: 5.00 | EC50 [3]: Not Active | pEC50 [4]: 5.26 | pEC50 [5]: 6.28 | pEC50 [6]: 5.42

pEC50 [7]: 5.00 | pEC50 [5]: 5.04 | pEC50 [6]: 5.14
SMILES: COc1ccc(CC2SC(=O)NC2=O)cc1C(=O)NCc1ccc(C(F)(F)F)cc1 (centres undefined)

pEC50 [7]: 6.03 | pEC50 [2]: 6.13
SMILES: CCOC(Cc1ccc(OCCN(C)c2nc3ccccc3o2)cc1)C(=O)O (centres undefined)

SMILES: COc1ccc(CCc2c(-c3ccccc3)[nH]c3ccc(CC(=O)O)cc23)cc1
pEC50 [1]: 6.85 | EC50 [8]: Not Active | EC50 [9]: Not Active | EC50 [10]: Not Active | EC50 [11]: Not Active

SMILES: CN(CCOc1ccc(C[C@H](Nc2ccccc2C(=O)c2ccccc2)C(=O)O)cc1)c1ccccn1
pEC50 [1]: 7.89 | EC50 [12]: Not Active | EC50 [13]: Not Active | EC50 [3]: Not Active | EC50 [14]: Not Active

SMILES: CC(C)(Oc1ccc(CCCN(CCc2c(F)cccc2Cl)C(=O)Nc2cccc(Cl)c2Cl)cc1)C(=O)O
pEC50 [1]: 5.82 | pEC50 [7]: 6.57 | pEC50 [2]: 6.77 | pEC50 [4]: 5.60 | pEC50 [6]: 6.39

SMILES: CCOC(=O)C(C)(C)Oc1ccc(Cl)cc1 [CLOFIBRATE]
pEC50 [7]: 4.30 | pEC50 [2]: 4.26 | EC50 [15]: Not Active | pEC50 [16]: 3.30 | EC50 [17]: Not Active

SMILES: Cc1oc(-c2ccccc2)nc1CCOc1ccc(C[C@H](Nc2ccccc2C(=O)c2ccccc2)C(=O)O)cc1 [FARGLITAZAR]
EC50 [12]: Not Active | EC50 [13]: Not Active | EC50 [3]: Not Active

SMILES: CC(C)OC(=O)C(C)(C)Oc1ccc(C(=O)c2ccc(Cl)cc2)cc1 [FENOFIBRATE]
EC50 [15]: Not Active | EC50 [17]: Not Active

SMILES: COC(=O)c1ccccc1N[C@@H](Cc1ccc(OCCc2nc(-c3ccccc3)oc2C)cc1)C(=O)O [GW7845]
EC50 [12]: Not Active | EC50 [13]: Not Active | EC50 [3]: Not Active

SMILES: CCCc1c(OCCCSc2ccc(CC(=O)O)cc2Cl)ccc2c(-c3ccccc3)coc12 [L-796449]
pEC50 [1]: 8.00 | pEC50 [7]: 5.12 | pEC50 [2]: 8.39 | pEC50 [6]: 7.64

SMILES: CCc1ccc(CCOc2ccc(CC3SC(=O)NC3=O)cc2)nc1 (centres undefined) [PIOGLITAZONE]
EC50 [18]: Not Active | EC50 [19]: Not Active | EC50 [10]: Not Active | EC50 [20]: Not Active

pEC50 [1]: 4.49
SMILES: Cc1cccc(Nc2cc(Cl)nc(SCC(=O)O)n2)c1C [PIRINIXIC ACID]

SMILES: Cc1oc(-c2ccccc2)nc1CCOc1ccc(CC2C(=O)NOC2=O)cc1 (centres undefined) [REGLITAZAR]
pEC50 [1]: 7.05 | EC50 [12]: Not Active | pEC50 [7]: 5.37 | pEC50 [2]: 5.72 | EC50 [13]: Not Active

SMILES: CN(CCOc1ccc(CC2SC(=O)NC2=O)cc1)c1ccccn1 (centres undefined) [ROSIGLITAZONE]
EC50 [19]: Not Active | EC50 [10]: Not Active

SMILES: Cc1c(C)c2c(c(C)c1O)CCC(C)(COc1ccc(CC3SC(=O)NC3=O)cc1)O2 (centres undefined) [TROGLITAZONE]
EC50 [18]: Not Active | EC50 [19]: Not Active | EC50 [10]: Not Active | EC50 [20]: Not Active
